Source: US11155740B2, “Shale hydration inhibitor and method of use” (M-I L.L.C., priority 2014, dated 2021)

Experiment: OECD 306 marine biodegradation
From the text: In the following example, additive formulations were studied for biodegradability in order to quantify the suitability of the formulations for use in environmentally sensitive areas. One measure of sample toxicity is marine biodegradation data as outlined in Organization for Economic Cooperation and Development, Procedure OECD 306 or BODIS. Under OECD 306, the rules that governing offshore chemical use set forth three tests: bioaccumulation, biodegradation and toxicity. In order for a chemical to be used without restriction offshore in the North Sea it must satisfy two of the following three criteria: (1) biodegradation must be greater than 60%, if less than 20% it is automatically marked for substitution; (2) bioaccumulation as measured by octanol/water partitioning coefficient (log Po/w) must be below 3 (or have a molecular weight >700); and toxicity to the most sensitive marine species (often Skeletonema) must be greater than LC50 or EC50 of 10 ppm.
During the biodegradation testing, samples were formulated as show below in Table 4, where polyetheramine is a diamino-functionalized JEFFAMINE™.
Samples were then subjected to biodegradation and results were tabulated as shown below in Table 5. Comparative samples of sodium benzoate and ULTRAHIB™ PLUS, an amine-based shale inhibitor commercially available from M-I L.L.C., were also assayed.

O=C([O-])c1ccccc1.[Na+] [Sodium benzoate]
OECD 306 Biodegradation Day 7 (Day 7): 64% | OECD 306 Biodegradation Day 14 (Day 14): 71% | OECD 306 Biodegradation Day 21 (Day 21): 76% | OECD 306 Biodegradation Day 28 (Day 28): 78%
